Results from PubChem BioAssay (NCI).
Several values for one entry are separate records, joined by “and”; a condition that tells them apart may be missing. Equal entries are not always repeated.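 1) Cells in 96-well plates. 2) Compound, 48 h, 5 concentrations. 3) Linear interpolation between surrounding doses. 4) Unreached endpoint = highest concentration. The concentration for 50% growth inhibition is given as GI50. TGI: concentration producing complete growth inhibition.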

Columns and labels:
Test in all cases: NCI tumour cell line growth inhibition, 48 h
SNB-75 CNS = test system: SNB-75 CNS
CCRF-CEM leukemia = test system: CCRF-CEM leukemia
NCI-H522 lung = test system: NCI-H522 lung
SN12C renal = test system: SN12C renal
786-0 renal = test system: 786-0 renal
HCT-15 colon = test system: HCT-15 colon
HOP-62 NSCLC = test system: HOP-62 NSCLC
SK-OV-3 ovarian = test system: SK-OV-3 ovarian
UACC-257 melanoma = test system: UACC-257 melanoma
T-47D breast = test system: T-47D breast

| SMILES | TGI (SNB-75 CNS) | TGI (CCRF-CEM leukemia) | TGI (NCI-H522 lung) | TGI (SN12C renal) [µM] | TGI (786-0 renal) [µM] | TGI (HCT-15 colon) | TGI (HOP-62 NSCLC) | TGI (SK-OV-3 ovarian) | TGI (UACC-257 melanoma) | GI50 (SNB-75 CNS) | GI50 (CCRF-CEM leukemia) | GI50 (NCI-H522 lung) | GI50 (786-0 renal) [µM] | GI50 (HCT-15 colon) | GI50 (SN12C renal) [µM] | GI50 (HOP-62 NSCLC) [µM] | GI50 (SK-OV-3 ovarian) [µM] | GI50 (UACC-257 melanoma) [µM] | GI50 (T-47D breast) [µM] | TGI (T-47D breast) [µM] |
| --- | --- | --- | --- | --- | --- | --- | --- | --- | --- | --- | --- | --- | --- | --- | --- | --- | --- | --- | --- | --- |
| COC(=O)/C(=N\NC(=O)C[N+](C)(C)C)C(C(=O)OC)C(=O)C(=O)Nc1ccccc1C(N)=O (stereo not drawn) | > 100 µM | > 100 µM | > 100 µM | > 100 | > 100 | > 100 µM | > 100 µM | > 100 µM | > 100 µM | – | – | – | – | – | – | – | – | – | – | – |
| C#CC1(O)C(COP(=O)(O)OC(COCCCCCCCCCCCCCCCCCC)COP(=O)(O)OCC2OC(n3cc(F)c(=O)[nH]c3=O)CC2O)OC(n2ccc(N)nc2=O)C1O (stereo not drawn) | 18.7 µM and 30.2 µM | 15.3 µM and > 70.6 µM | 0.223 µM and 1.52 µM | > 65.1 | > 100 | > 74.9 µM and 34.4 µM | > 86.5 µM and 33.9 µM | 16.2 µM and > 100 µM | 97.5 µM and 55.8 µM | 0.343 µM and 0.975 µM | 0.115 µM and 0.965 µM | < 0.0377 µM and 0.0758 µM | 0.547 | 0.134 µM and 0.335 µM | – | – | – | – | – | – |
| O=c1[nH]nc2ccccc2c1Cc1ccccc1 | > 100 µM | > 100 µM | – | > 100 | > 100 | > 100 µM | > 100 µM | > 100 µM | > 100 µM | – | – | – | – | – | – | – | – | – | – | – |
| Clc1ccc(N=Nc2nc3ccccc3nc2N=Nc2ccc(Cl)cc2Cl)c(Cl)c1 | 93.4 µM | – | > 100 µM | > 100 | > 100 | > 100 µM | > 100 µM | – | > 100 µM | – | – | – | – | – | – | – | – | – | – | – |
| c1ccc(C(c2ccccc2)c2cccnc2)cc1 | > 100 µM | > 100 µM | – | > 100 | > 100 | > 100 µM | > 100 µM | > 100 µM | > 100 µM | – | – | – | – | – | – | – | – | – | – | – |
| Cc1ccc(SSc2ccc(C)cc2C(=O)O)c(C(=O)O)c1 | – | > 100 µM | > 100 µM | > 100 | > 100 | – | > 100 µM | > 100 µM | > 100 µM | – | – | – | – | – | – | – | – | – | – | – |
| COc1cc([C@@H]2c3cc4c(cc3[C@@H](OC(=O)c3ccc(N)cc3)C3COC(=O)[C@@H]32)OCO4)cc(OC)c1O (stereo partly drawn) | 36.4 µM | > 95 µM | 5.35 µM | 40.1 | 59 | 56.1 µM | 26.9 µM | 20.7 µM | > 95 µM | – | – | – | – | – | – | – | – | – | – | – |
| COC1=CC(c2ccc[nH]2)=N/C1=C\c1[nH]c(C)c(C(=O)CCCCC(=O)NC(C)(C)C)c1C | 9 µM | – | 6.73 µM | 7.32 | 3.36 | 2.06 µM | 5.02 µM | 25.5 µM | 35.8 µM | 2.79 µM | 0.526 µM | 2.09 µM | 1.7 | 0.683 µM | 2.19 | 1.74 | 9.31 | 16 | – | – |
| COc1cccc(-c2nn(-c3ccccc3)cc2-c2ccnc(NCCCNC(=O)Nc3ccc(Cl)c(Cl)c3)c2)c1 | 19.2 µM | – | – | 25 | 3.97 | 6.66 µM | 8.88 µM | 18.6 µM | 5.38 µM | 2.52 µM | – | – | 1.82 | 2.4 µM | 5.73 | 3.23 | 4.92 | 2.05 | 2.41 | 11.4 |
| C[C@]12CCC(=O)C=C1CC[C@@H]1C2CC[C@]2(C)Nc3c(cnn3-c3ccccc3)CC12 (stereo partly drawn) | > 100 µM | > 100 µM | – | – | > 100 | > 100 µM | > 100 µM | > 100 µM | > 100 µM | – | – | – | – | – | – | – | – | – | – | – |
| COCC(O)Cn1ccnc1[N+](=O)[O-] (stereo not drawn) | – | > 100 µM | > 100 µM | > 100 | > 100 | > 100 µM | > 100 µM | > 100 µM | > 100 µM | – | – | – | – | – | – | – | – | – | – | – |
| CCOC1=C2C(=O)OC(=O)C2C2CCCCC2=C1 (stereo not drawn) | > 100 µM | > 100 µM | > 100 µM | > 100 | > 100 | > 100 µM | > 100 µM | > 100 µM | > 100 µM | – | – | – | – | – | – | – | – | – | – | – |
| CC(C)CCCC(C)[C@H]1CCC2[C@@H]3CCC4Nc5nocc5C[C@]4(C)C3CC[C@@]21C (stereo partly drawn) | 33.8 µM | 36.9 µM | 14.5 µM | 33.8 | 25.9 | 30.3 µM | > 100 µM | 34.8 µM | 39.5 µM | – | – | – | – | – | – | – | – | – | – | – |
| OCC1C(/C=C/c2ccoc2)ON2CCCC12 (stereo not drawn) | > 100 µM | – | > 100 µM | > 100 | > 100 | – | > 100 µM | – | > 100 µM | – | – | – | – | – | – | – | – | – | – | – |
| C[C@]12CCc3sc(NCCc4ccccc4)nc3C1=CC[C@@H]1[C@@H]2CC[C@]2(C)C(=O)CC[C@@H]12 | – | 40.4 µM | 3.64 µM | > 100 | 9.61 | 4.49 µM | > 100 µM | > 100 µM | 79.8 µM | – | 2.63 µM | 1.78 µM | 2.82 | 1.57 µM | 2.89 | 8.52 | > 100 | 4.92 | 3.05 | 25.2 |
| O=C1NC2(CCCCCC2)C2CCCCCCC12O (stereo not drawn) | > 100 µM | > 100 µM | > 100 µM | > 100 | > 100 | > 100 µM | > 100 µM | > 100 µM | > 100 µM | – | – | – | – | – | – | – | – | – | – | – |
| COc1cc2ccccc2oc1=O | > 100 µM | > 100 µM | > 100 µM | > 100 | > 100 | > 100 µM | > 100 µM | – | > 100 µM | – | – | – | – | – | – | – | – | – | – | > 100 |
| C=CCNC(=O)N(CCCC(NC(C)=O)C(=O)NCc1ccccc1)Cc1ccccc1 (stereo not drawn) | > 100 µM | > 100 µM | > 100 µM | > 100 | > 100 | > 100 µM | > 100 µM | > 100 µM | > 100 µM | – | – | – | – | – | – | – | – | – | – | – |
| CCCc1cc(=O)[nH]c(-n2nc(C)cc2C)n1 | > 100 µM | 26.5 µM | 30.7 µM | > 100 | > 100 | > 100 µM | > 100 µM | > 100 µM | 40 µM | 40.3 µM | 1.59 µM | 4.98 µM | 7.62 | 1.75 µM | 4.75 | 5.58 | 9.34 | 6.23 | – | – |
| Cc1cc(C(=C2C=CC(=Nc3ccccc3)C=C2)c2ccc(Nc3ccccc3)cc2)ccc1N | 2.22 µM | > 100 µM | 0.602 µM | 1.48 | 0.709 | – | – | 2.9 µM | 1.04 µM | 0.598 µM | 0.352 µM | 0.203 µM | 0.259 | – | 0.31 | – | 1.52 | 0.286 | 0.527 | 1.93 |
